The experiment deals with D(3) dopamine receptor (Rattus norvegicus) (UniProt P19020). The experiment in a line: Saturable binding was tested dopamine receptor D3 in rat striatal membrane homogenate. Type of experiment: cell membranes. The note with it: Striatum.

Here are results for one compound from ChEMBL document CHEMBL1126578, “Synthesis and optical resolution of (R)- and (S)-trans-7-Hydroxy-2-[N-propyl-N-(3'-iodo-2'-propenyl)amino]tetralin: a new D3 dopamine receptor ligand” (J Med Chem, 1993).

Sequence of D(3) dopamine receptor (Rattus norvegicus) (P19020 whole entry): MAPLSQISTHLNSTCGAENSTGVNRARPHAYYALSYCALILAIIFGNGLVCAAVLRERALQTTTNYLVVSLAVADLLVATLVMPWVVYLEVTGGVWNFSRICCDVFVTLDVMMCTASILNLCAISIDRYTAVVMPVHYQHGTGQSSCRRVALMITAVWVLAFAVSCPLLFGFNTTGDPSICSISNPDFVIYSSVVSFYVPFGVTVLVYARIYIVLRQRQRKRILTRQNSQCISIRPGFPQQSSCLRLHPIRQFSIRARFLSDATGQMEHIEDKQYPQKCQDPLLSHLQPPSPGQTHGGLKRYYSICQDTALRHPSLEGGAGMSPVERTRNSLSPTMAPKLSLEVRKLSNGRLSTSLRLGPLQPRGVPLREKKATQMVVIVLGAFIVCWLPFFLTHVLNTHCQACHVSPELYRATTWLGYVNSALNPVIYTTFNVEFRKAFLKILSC

For the compound `CCCN(C/C=C/I)C1CCc2ccc(O)cc2C1` (stereo unspecified), the Bmax (fM (mg of protein)-1) was 240.
